According to paper PMC10856041, “Chemical Epigenetic Regulation Secondary Metabolites Derived from Aspergillus sydowii DL1045 with Inhibitory Activities for Protein Tyrosine Phosphatases” (Molecules, 2024):
Values after ≈ are worked out from the molar mass of the structure shown.

Key:
K. pneumonia = tested on: K. pneumonia; set-up: method as in PMID 24736857; conditions: cited from earlier work
nematode = test: anti-nematode activity
TCPTP = molecular target: T1, TCPTP (Homo sapiens, UniProt P17706); test: PTP inhibitory activity (p-NPP degradation), TCPTP; type: biochemical; conditions: p-NPP substrate, 37 °C, 30 min, 405 nm; mean ± SD, n = 3
T1 construct: incubated at 37 °C with 2.5 μg domain protein
T1 sequence (P17706 5-275 limits assumed): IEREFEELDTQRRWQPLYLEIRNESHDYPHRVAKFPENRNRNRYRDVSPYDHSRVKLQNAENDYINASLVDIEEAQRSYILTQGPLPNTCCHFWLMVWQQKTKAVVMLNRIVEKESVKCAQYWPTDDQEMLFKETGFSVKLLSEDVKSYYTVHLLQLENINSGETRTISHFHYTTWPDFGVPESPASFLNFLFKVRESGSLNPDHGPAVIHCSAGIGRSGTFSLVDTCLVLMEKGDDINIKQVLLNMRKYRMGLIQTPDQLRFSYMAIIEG
Procedure: (§1) The diabetes-related PTPs (PTP1B, TCPTP, SHP1 and CD45) inhibitory activity of the tested compounds was measured as previously described. The compounds were dissolved in DMSO and incubated at 37 °C with 2.5 μg domain protein, 20 mM 3-(N-Morpholino) propanesulfonic (MOPS), 9 mM p-nitrophenyl phosphate (p-NPP), 50 mM NaCl and 50 mM DTT, pH 7.2. The reaction was performed in a 96-well plate (DMSO as blank control). The reaction was started by adding the assay buffer (50 mM citrate (pH 6.0), 0.1 M NaCl, 1 mM EDTA, and 1 mM dithiothreitol) with a final volume of 150 μL and incubated at 37 °C for 30 min and 10 M NaOH was added to terminate the reaction. The inhibition of PTPs by tested compounds was assessed by measuring the degradation of p-NPP at a wavelength of 405 nm.

PTP1B = molecular target: T2, PTP1B (Homo sapiens, UniProt P18031); test: PTP inhibitory activity (p-NPP degradation), PTP1B; type: biochemical; conditions: p-NPP substrate, 37 °C, 30 min, 405 nm; mean ± SD, n = 3
T2 construct: incubated at 37 °C with 2.5 μg domain protein
T2 sequence (P18031 3-277 limits assumed): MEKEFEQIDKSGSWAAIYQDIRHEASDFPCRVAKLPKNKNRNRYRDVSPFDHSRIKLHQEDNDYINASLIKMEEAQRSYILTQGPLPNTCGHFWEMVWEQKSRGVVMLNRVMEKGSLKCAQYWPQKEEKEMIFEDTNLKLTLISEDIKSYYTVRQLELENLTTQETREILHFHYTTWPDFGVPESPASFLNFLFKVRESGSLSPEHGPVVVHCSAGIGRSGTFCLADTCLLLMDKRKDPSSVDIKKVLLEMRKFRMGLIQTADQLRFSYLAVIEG
Procedure: as §1

SHP1 = molecular target: T3, SHP1 (Homo sapiens, UniProt P29350); test: PTP inhibitory activity (p-NPP degradation), SHP1; type: biochemical; conditions: p-NPP substrate, 37 °C, 30 min, 405 nm; mean ± SD, n = 3
T3 construct: incubated at 37 °C with 2.5 μg domain protein
T3 sequence (P29350 244-515 limits assumed): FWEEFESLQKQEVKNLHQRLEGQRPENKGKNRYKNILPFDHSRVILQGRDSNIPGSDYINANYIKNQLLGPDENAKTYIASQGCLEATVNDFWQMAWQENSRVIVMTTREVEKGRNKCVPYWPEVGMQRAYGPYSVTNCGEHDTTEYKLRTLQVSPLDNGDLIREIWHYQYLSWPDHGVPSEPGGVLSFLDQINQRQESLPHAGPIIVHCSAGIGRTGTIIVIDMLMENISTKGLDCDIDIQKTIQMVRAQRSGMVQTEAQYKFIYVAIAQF
Procedure: as §1

CD45 = molecular target: T4, CD45 (Homo sapiens, UniProt P08575); test: PTP inhibitory activity (p-NPP degradation), CD45; type: biochemical; conditions: p-NPP substrate, 37 °C, 30 min, 405 nm; mean ± SD, n = 3
T4 sequence (P08575 653-912 limits assumed): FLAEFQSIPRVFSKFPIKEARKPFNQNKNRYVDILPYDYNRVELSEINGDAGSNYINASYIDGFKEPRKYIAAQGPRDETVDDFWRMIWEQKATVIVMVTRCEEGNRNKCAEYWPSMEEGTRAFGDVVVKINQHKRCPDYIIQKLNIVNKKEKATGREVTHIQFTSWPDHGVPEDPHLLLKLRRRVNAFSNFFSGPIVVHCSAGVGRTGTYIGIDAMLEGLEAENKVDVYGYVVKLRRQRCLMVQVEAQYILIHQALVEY
Procedure: as §1

two weeds = tested on: two weeds; set-up: method as in PMID 11076561; conditions: cited from earlier work
HDAC = tested on: HDAC; set-up: method as in PMID 15808449, PMID 31201063; conditions: cited from earlier work
A. sydowii DL1045 = test: effect of SAHA on growth and fermentation of A. sydowii DL1045; type: cell-based, Aspergillus sydowii DL1045
Procedure: After A. sydowii DL1045 in rice extract culture medium was treated with three different histone deacetylase inhibitors, including suberoylanilide hydroxamic acid (SAHA), […] and nicotinamide, the fermentation status of the fungi was observed. […] The fermentation broth of A. sydowii DL1045 in the control group was dark green, whereas the fermentation broth in the 250 μM SAHA treatment group was golden yellow (Figure 1a,b). In addition, after 10 days, the weight of metabolites was 3.5 times lower in the SAHA group than in the control group (Figure S1, Supplementary Materials). […] This conjecture was confirmed by the results of scanning electron microscopy, and after 10 days of fermentation, the spores detached from the sporangium after maturation in the later stage of fermentation (Figure 1c).
A. sydowii DL1045 was retrieved from deep-sea mud sediment off the coast of Dalian, Liaoning Province, 121.55 °E and 38.88 °N, China. A. sydowii DL1045 was cultivated on potato dextrose agar (PDA) medium, consisting of 200 g/L of potato, 30 g/L of NaCl, 15 g/L of agar, and 20 g/L of dextrose and incubated for three days at 28 °C with 60% humidity. […]

A-549 cells = tested on: A-549 cells; set-up: method as in PMID 18505285; conditions: read-out: IC50 cytotoxicity against A-549 cells; cited from earlier work
Staphylococcus aureus = tested on: Staphylococcus aureus; set-up: method as in PMID 32449250; conditions: cited from earlier work
α-glucosidase = tested on: α-glucosidase; set-up: method as in PMID 24436963; conditions: cited from earlier work

IC50 (nematode) | IC50 (TCPTP) | IC50 (PTP1B) | IC50 (SHP1) | IC50 (CD45) | Compound | other results
> 100 µM | > 20 µM | 9.65 ± 0.73 µM | 8.69 ± 0.26 µM | > 20 µM | C/C(=C\CCC(C)C)c1ccc(CO)cc1O [Compound A4, aspergillusene A] | MIC against K. pneumonia (K. pneumonia): 21.4 mM (≈ 5010 µg/mL)
 |  |  |  |  | C/C(=C/CCC(C)C)c1ccc(CO)cc1O [(Z)-5-(Hydroxymethyl)-2-(6′) methylhept-2′-en-2′-yl)-phenol, reference compound] | MIC against K. pneumonia (K. pneumonia): 10.7 mM (≈ 2510 µg/mL)
50 µM | > 20 µM | > 20 µM | 0.96 ± 0.02 µM | 4.03 ± 0.13 µM | Cc1cc(O)cc(Oc2cc(C)cc(O)c2)c1 [Compound A3, diorcinol] | MIC against K. pneumonia (K. pneumonia): 21.7 mM (≈ 5000 µg/mL)
> 100 µM | > 20 µM | 7.6 ± 0.21 µM | 6.01 ± 0.18 µM | 7.4 ± 0.08 µM | Cc1cc(O)cc(OC(=O)c2c(C)cc(O)cc2O)c1 [Compound A9, lecanorin] | inhibition of radicle growth and germination of two weeds (two weeds): markedly inhibited the radicle growth and germination of the two weeds
 |  |  |  |  | COC(=O)CCCCCCC(=O)Nc1ccccc1 [Compound S1, methyl 8-oxo-8-(phenylamino) octanoate] | HDAC inhibitory activity (HDAC): displayed HDAC inhibitory activity
 |  |  |  |  | O=C(CCCCCCC(=O)Nc1ccccc1)NO [SAHA, suberoylanilide hydroxamic acid] | effect on mycelial growth and spore germination (A. sydowii DL1045; 250 μM SAHA, 10 days, scanning electron microscopy): inhibited mycelial growth and spore germination; weight of metabolites, times lower in SAHA group than in control group (A. sydowii DL1045; after 10 days, ethyl acetate extract (Figure S1)): 3.5 times
 |  |  |  |  | COc1ccc2c(c1)NC(=O)[C@@]21C=C2C(=O)N3CCC[C@H]3C(=O)N2[C@H]1C=C(C)C [6-methoxyspirotryprostatin B] | IC50 (A-549 cells): 8.29 µM
 |  |  |  |  | 14-hydroxyterezine D | IC50 (A-549 cells): 7.31 µM
 |  |  |  |  | COC(=O)/C=C/c1cc(OC)c(OC)c(OC)c1 [Compound A6, methyl trimethoxycinnamate] | inhibitory activity against Staphylococcus aureus (Staphylococcus aureus): showed inhibitory activity against Staphylococcus aureus
> 100 µM | > 20 µM | > 20 µM | 2.16 ± 0.23 µM | 4.46 ± 0.16 µM | Cc1cc(Oc2cc(O)cc(C)c2C(=O)O)cc(O)c1C(=O)O [Compound A13, diorcinol acid] | 
 |  |  |  |  | COc1ccc2c(C[C@@H]3NC(=O)[C@@H]4CCCN4C3=O)c(C(=O)C=C(C)C)[nH]c2c1 [18-oxotryprostatin A] | IC50 (A-549 cells): 1.28 µM
 |  |  |  |  | COc1ccc([C@H]2N[C@H](CO)[C@@H](O)[C@@H]2O)cc1O [Compound A7, radicamine A] | α-glucosidase inhibitory activity (α-glucosidase): exhibit α-glucosidase inhibitory activity
 |  |  |  |  | O=C(O)CCCCCCC(=O)Nc1ccccc1 [Compound S2, suberanilic acid] | HDAC inhibitory activity (HDAC): displayed HDAC inhibitory activity
